From ChEMBL document CHEMBL1201862, “PubChem BioAssay data set” (2004)
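Cultured in 96-well plates, cells were exposed to test compound for 48 hours across five concentrations. GI50 = concentration required for 50% inhibition of growth.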 Calls of active or inactive are those of the source. No stated cut-off is given here; in the data, active = GI50 up to about 1.1 µM and inactive = higher.

Tests used:
Test in all cases: inhibition of tumour cell growth, NCI panel, 48 h
[1] = tested on: BT-549
[2] = tested on: CAKI-1
[3] = tested on: CCRF-CEM
[4] = tested on: HL-60
[5] = tested on: IGROV-1
[6] = tested on: KM12
[7] = tested on: LOX IMVI
[8] = tested on: M14
[9] = tested on: NCI-H23
[10] = tested on: NCI-H460
[11] = tested on: OVCAR-8
[12] = tested on: PC-3
[13] = tested on: SF-539
[14] = tested on: SK-OV-3
[15] = tested on: UACC-257
[16] = tested on: UACC-62
[17] = tested on: UO-31
[18] = tested on: SK-MEL-28
[19] = tested on: HCC 2998

O=C(NCCc1n[nH]c2c1C(=O)C=C(Nc1ccccc1)C2=O)OCc1ccccc1
GI50 [1]: > 100 µM (inactive)
GI50 [2]: > 100 µM (inactive)
GI50 [3]: > 100 µM (inactive)
GI50 [4]: > 100 µM (inactive)
GI50 [5]: > 100 µM (inactive)
GI50 [6]: > 100 µM (inactive)
GI50 [7]: > 100 µM (inactive)
GI50 [8]: > 100 µM (inactive)
GI50 [9]: > 100 µM (inactive)
GI50 [10]: > 100 µM (inactive)
GI50 [11]: > 100 µM (inactive)
GI50 [12]: > 100 µM (inactive)
GI50 [13]: > 100 µM (inactive)
GI50 [14]: > 100 µM (inactive)
GI50 [15]: > 100 µM (inactive)
GI50 [16]: 8.09 µM (inactive)
GI50 [17]: > 100 µM (inactive)

CN(C)c1ccc2nc3c(C(=O)O)cc(O)c(O)c3[o+]c2c1
GI50 [1]: 20.9 µM (inactive)
GI50 [2]: 52.8 µM (inactive)
GI50 [3]: 10.5 µM (inactive)
GI50 [4]: 22.3 µM (inactive)
GI50 [5]: 92.3 µM (inactive)
GI50 [6]: 26.9 µM (inactive)
GI50 [7]: 33.1 µM (inactive)
GI50 [8]: 21.7 µM (inactive)
GI50 [9]: 16.8 µM (inactive)
GI50 [10]: 24.8 µM (inactive)
GI50 [11]: 41 µM (inactive)
GI50 [12]: 36.5 µM (inactive)
GI50 [13]: 27 µM (inactive)
GI50 [18]: 43 µM (inactive)
GI50 [14]: 25 µM (inactive)
GI50 [15]: 14.8 µM (inactive)
GI50 [16]: 20 µM (inactive)
GI50 [17]: 28.6 µM (inactive)

COc1cc2c(c(OC)c1OC)C(=O)c1c(O)cc(C)c(OC)c1C2=O
GI50 [1]: > 100 µM (inactive)
GI50 [2]: 44.6 µM (inactive)
GI50 [3]: > 10 µM (inactive)
GI50 [19]: > 100 µM (inactive)
GI50 [4]: > 100 µM (inactive)
GI50 [5]: > 100 µM (inactive)
GI50 [6]: > 100 µM (inactive)
GI50 [7]: 86.3 µM (inactive)
GI50 [8]: > 100 µM (inactive)
GI50 [9]: > 100 µM (inactive)
GI50 [10]: 63.1 µM (inactive)
GI50 [11]: > 100 µM (inactive)
GI50 [12]: > 100 µM (inactive)
GI50 [13]: 75.5 µM (inactive)
GI50 [18]: 37.2 µM (inactive)
GI50 [15]: 54.6 µM (inactive)
GI50 [17]: 85.3 µM (inactive)

O=S(=O)(O)c1ccc2c(/N=N/c3cccc4ccccc34)c(O)ccc2c1
GI50 [1]: > 100 µM (inactive)
GI50 [2]: > 100 µM (inactive)
GI50 [3]: > 100 µM (inactive)
GI50 [4]: > 100 µM (inactive)
GI50 [5]: > 100 µM (inactive)
GI50 [6]: > 100 µM (inactive)
GI50 [7]: > 100 µM (inactive)
GI50 [8]: > 100 µM (inactive)
GI50 [9]: > 100 µM (inactive)
GI50 [11]: > 100 µM (inactive)
GI50 [12]: > 100 µM (inactive)
GI50 [18]: > 100 µM (inactive)
GI50 [14]: > 100 µM (inactive)
GI50 [15]: > 100 µM (inactive)
GI50 [16]: > 100 µM (inactive)
GI50 [17]: > 100 µM (inactive)

Cc1c(C=C(C#N)C#N)c(=O)n(C)c(=O)n1C
GI50 [1]: > 100 µM (inactive)
GI50 [2]: > 100 µM (inactive)
GI50 [3]: 19.6 µM (inactive)
GI50 [4]: > 100 µM (inactive)
GI50 [5]: > 100 µM (inactive)
GI50 [6]: > 100 µM (inactive)
GI50 [7]: > 100 µM (inactive)
GI50 [8]: > 100 µM (inactive)
GI50 [9]: > 100 µM (inactive)
GI50 [10]: > 100 µM (inactive)
GI50 [11]: > 100 µM (inactive)
GI50 [12]: > 100 µM (inactive)
GI50 [13]: > 100 µM (inactive)
GI50 [18]: > 100 µM (inactive)
GI50 [14]: > 100 µM (inactive)
GI50 [15]: > 100 µM (inactive)
GI50 [16]: > 100 µM (inactive)
GI50 [17]: > 100 µM (inactive)

CCOC(=O)Nc1sc2c(c1C#N)CC(C)CC2 (stereo not given)
GI50 [1]: 19.7 µM (inactive)
GI50 [2]: 21.8 µM (inactive)
GI50 [19]: 2.24 µM (inactive)
GI50 [4]: 0.1 µM (active)
GI50 [5]: 7.52 µM (inactive)
GI50 [6]: 3.9 µM (inactive)
GI50 [7]: 10.2 µM (inactive)
GI50 [8]: 2.66 µM (inactive)
GI50 [9]: 25.6 µM (inactive)
GI50 [10]: 3.41 µM (inactive)
GI50 [11]: 8.75 µM (inactive)
GI50 [12]: 5.35 µM (inactive)
GI50 [18]: 17.1 µM (inactive)
GI50 [14]: 23 µM (inactive)
GI50 [15]: 11 µM (inactive)
GI50 [16]: 4.49 µM (inactive)
GI50 [17]: 8.91 µM (inactive)

CCn1c(=O)c2cn[nH]c2n(C)c1=O
GI50 [1]: > 100 µM (inactive)
GI50 [2]: > 100 µM (inactive)
GI50 [3]: > 100 µM (inactive)
GI50 [19]: > 100 µM (inactive)
GI50 [5]: 66.7 µM (inactive)
GI50 [6]: > 100 µM (inactive)
GI50 [7]: > 100 µM (inactive)
GI50 [8]: > 100 µM (inactive)
GI50 [9]: > 100 µM (inactive)
GI50 [10]: > 100 µM (inactive)
GI50 [11]: > 100 µM (inactive)
GI50 [12]: > 100 µM (inactive)
GI50 [13]: > 100 µM (inactive)
GI50 [18]: > 100 µM (inactive)
GI50 [14]: > 100 µM (inactive)
GI50 [15]: > 100 µM (inactive)
GI50 [16]: > 100 µM (inactive)
GI50 [17]: > 100 µM (inactive)

CO/C(=N\N=C\c1ccccc1F)c1ccncc1
GI50 [1]: > 10 µM (inactive)
GI50 [2]: > 10 µM (inactive)
GI50 [3]: > 10 µM (inactive)
GI50 [19]: > 10 µM (inactive)
GI50 [4]: > 10 µM (inactive)
GI50 [6]: > 10 µM (inactive)
GI50 [7]: > 10 µM (inactive)
GI50 [8]: > 10 µM (inactive)
GI50 [9]: > 10 µM (inactive)
GI50 [10]: > 10 µM (inactive)
GI50 [11]: > 10 µM (inactive)
GI50 [12]: > 10 µM (inactive)
GI50 [15]: > 10 µM (inactive)
GI50 [17]: > 10 µM (inactive)
